Marks after values point to notes of the source that are not given here.
Legend:
Type in all cases: cell-based
RNASE7 = test: mRNA expression in normal human keratinocytes (Quantigene), RNASE7; parameters: dose or concentration left out as unconfirmed; conditions: CaCl2, positive control, 72 hours, NHK, in relation to the negative control
Protocol: (§1) The effect of sucrose octasulfate of magnesium and sucrose octasulfate of potassium and sodium on regulation of molecular targets involved in keratinocyte differentiation processes was evaluated. To that end, normal human keratinocytes (NHK) were brought together with the various products to be tested and the expression of various RNA coding proteins involved in the establishment of protein structures of the cornified envelope, but also in the synthesis of lipids or the expression of antimicrobial peptides, was measured.
(§2) The keratinocyte cell line used is the primary human keratinocyte cell line or NHKs prepared from strips of skin from cosmetic surgery waste (breast reduction). […]
(§3) The products to be tested are incubated with keratinocytes for 72 hours. The cells are then recovered and an analysis of the expression of target genes involved in epidermal differentiation is carried out using Quantigene technology, used to quantify the expression of mRNA of interest.
(§4) The values obtained by Quantigene are normalized in relation to the geometric mean of 2 reference genes, POL2RA and HPRT. Relative quantity is calculated in relation to the control. Regulation of the expression of the gene of interest is taken into account from a RQ (relative quantity)≧1.9 (induction) or RQ[…] (inhibition). […]

DEFB103A = test: mRNA expression in normal human keratinocytes (Quantigene), DEFB103A; parameters: dose or concentration left out as unconfirmed; conditions: CaCl2, positive control, 72 hours, NHK, in relation to the negative control
Protocol: as §1, §2, §3, §4

CDSN = test: mRNA expression in normal human keratinocytes (Quantigene), CDSN; parameters: dose or concentration left out as unconfirmed; conditions: positive control, 72 hours, NHK, in relation to the negative control
Protocol: as §1, §2, §3, §4

UGCG = test: mRNA expression in normal human keratinocytes (Quantigene), UGCG; parameters: dose or concentration left out as unconfirmed; conditions: CaCl2, positive control, 72 hours, NHK, in relation to the negative control
Protocol: as §1, §2, §3, §4

[1] = tested on: HaCaT human keratinocytes cell line; test: Oris Cell Migration Assay, keratinocyte migration; conditions: for AVG IF (Intensity of Fluorescence, proportional to the quantity of cells having migrated) / % activity/control: 24 hours; for AVG IF (Intensity of Fluorescence, proportional to the quantity of cells having migrated): DMEM 0% FCS; for % activity/control: in relation to the 0% FCS control
Protocol: In order to evaluate the impact of sucrose octasulfate of magnesium on the cell migration of HaCaT keratinocyte cell lines, studies were carried out using the Oris Cell Migration Assay Kit (Platypus Technologies). This study was conducted in parallel with sucrose octasulfate of potassium and sucrose octasulfate of sodium for comparison.
The keratinocyte cell line used is the HaCaT human keratinocytes cell line, spontaneously immortalized. This line is frequently cited as a reference model in the literature.
The protocol used for the cell migration study is based on the use of a 96-well kit, Oris Cell Migration Assay (Platypus Technologies—TEBU), enabling the miniaturization and quantification of this cell process.
The principle of this test consists in studying cell migration toward the center of the well of the 96-well plate. It consists in placing a stopper in the wells, in order to create a detection zone 2 mm in diameter. Then the stoppers are removed once the cells are well adhered to the surrounding surface, thus allowing the cells to migrate toward the detection zone. Plates without stoppers and with active agents are incubated at 37° C. for 24 hours in DMEM 0% FCS. The quantity of cells located in the zone previously occupied by the stopper is then analyzed in order to evaluate cell migration. A mask is used to visualize and count only the cells located in this zone. For each condition, an average of 4 to 8 wells is prepared.
The products tested in this study are SOS-Mg obtained in example 1 at a concentration of 10 μM, SOS-K at 10 μM (sucrose octasulfate of potassium), SOS-Na at 10 μM (sucrose octasulfate of sodium) and EGF as positive control. A negative control is prepared in which no compound is added to the culture medium (control 0% FCS).
The results are quantified by means of the following formula:
[formula] • in IF (Intensity of Fluorescence, proportional to the quantity of cells having migrated). • in percentage of activity in relation to the 0% FCS control.

hBD2 (DEFB4) = test: mRNA expression in normal human keratinocytes (real-time PCR), hBD2; conditions: 30 μM, 72 hours, NHK, FIG. 3
Protocol: FIG. 3 represents the relative quantity of hBD2 mRNA produced by keratinocytes treated for 72 hours with 30 μM sucrose octasulfate of magnesium (SOS-Mg), 30 μM sucrose octasulfate of sodium (SOS-Na) or 30 μM sucrose octasulfate of magnesium (SOS-Mg) in relation to the negative control.
(§5) The keratinocyte cell line used is the primary human keratinocyte cell line or NHKs prepared from strips of skin from cosmetic surgery waste (breast reduction). The cells are grown in low-magnesium (0.1 mM) KSFM (Invitrogen) supplemented with 25 μg/ml bovine pituitary extract (BPE) and 1.5 ng/ml […] (EGF).
as §3
(§6) A second study was carried out under the same conditions but by measuring the expression of a larger number of genes (64 targets involved in cell differentiation) by real-time PCR.
(§7) These inductions show the role of SOS-Mg in the induction of keratinocyte differentiation and thus of cicatrization (IVL, SPRR1A, SPRR1B and LOR), in moisturization (Padi1) as well as its antimicrobial properties (hBD2). […]

IVL = test: mRNA expression in normal human keratinocytes (real-time PCR), IVL; conditions: 30 μM, 72 hours, NHK
Protocol: as §5, §3, §6
(§8) These inductions show the role of SOS-Mg in the induction of keratinocyte differentiation and thus of cicatrization (IVL, SPRR1A, SPRR1B and LOR), in moisturization (Padi1) as well as its antimicrobial properties (hBD2).

SPRR1A = test: mRNA expression in normal human keratinocytes (real-time PCR), SPRR1A; conditions: 30 μM, 72 hours, NHK
Protocol: as §5, §3, §6, §8

FLG = test: mRNA expression in normal human keratinocytes (real-time PCR), FLG; conditions: 30 μM, 72 hours, NHK
Protocol: as §5, §3, §6, §8

LOR = test: mRNA expression in normal human keratinocytes (real-time PCR), loricrin; conditions: 30 μM, 72 hours, NHK, FIG. 1
Protocol: FIG. 1 represents the relative quantity of loricrin mRNA produced by keratinocytes treated for 72 hours with 30 μM sucrose octasulfate of magnesium (SOS-Mg), 30 μM sucrose octasulfate of sodium (SOS-Na) or 30 μM sucrose octasulfate of magnesium (SOS-Mg) in relation to the negative control.
as §5, §3, §6, §7

SPRR1B = test: mRNA expression in normal human keratinocytes (real-time PCR), SPRR1B; conditions: 30 μM, 72 hours, NHK
Protocol: as §5, §3, §6, §8

Padi1 = test: mRNA expression in normal human keratinocytes (real-time PCR), Padi1; conditions: 30 μM, 72 hours, NHK, FIG. 2
Protocol: FIG. 2 represents the relative quantity of Padi1 mRNA produced by keratinocytes treated for 72 hours with 30 μM sucrose octasulfate of magnesium (SOS-Mg), 30 μM sucrose octasulfate of sodium (SOS-Na) or 30 μM sucrose octasulfate of magnesium (SOS-Mg) in relation to the negative control.
as §5, §3, §6, §7

## [Ca+2].[Cl-].[Cl-] [CaCl2]
RNASE7
  Relative quantities (RQ) of mRNA expression, RNASE7: 4.5
RNASE7; listed as Calcium
  Relative quantities (RQ) of mRNA expression, RNASE7: induced
DEFB103A
  Relative quantities (RQ) of mRNA expression, DEFB103A: 18.7
DEFB103A; listed as Calcium
  Relative quantities (RQ) of mRNA expression, DEFB103A: induced
CDSN
  Relative quantities (RQ) of mRNA expression, CDSN: 1.3
UGCG
  Relative quantities (RQ) of mRNA expression, UGCG: 3.1
UGCG; listed as Calcium
  Relative quantities (RQ) of mRNA expression, UGCG: induced

## EGF: epithelial growth factor (EGF), positive control of the migration test
[1]; EGF 33 ng, positive control, HaCaT
  AVG IF (Intensity of Fluorescence, proportional to the quantity of cells having migrated): 16138 ± 1548
[1]; EGF 33 ng, positive control
  % activity/control: 320*** %
[1]; EGF at 33 ng/ml, positive control, HaCaT
  keratinocyte migration (result in words): induced keratinocyte migration (and proliferation) in a very large and significant manner

## O=S(=O)([O-])OC[C@H]1O[C@@](COS(=O)(=O)[O-])(O[C@H]2O[C@H](COS(=O)(=O)[O-])[C@@H](OS(=O)(=O)[O-])[C@H](OS(=O)(=O)[O-])[C@H]2OS(=O)(=O)[O-])[C@@H](OS(=O)(=O)[O-])[C@@H]1OS(=O)(=O)[O-].[K+].[K+].[K+].[K+].[K+].[K+].[K+].[K+] [SOS-K, sucrose octasulfate of potassium]
[1]; 10 μM, HaCaT
  AVG IF (Intensity of Fluorescence, proportional to the quantity of cells having migrated): 5001 ± 835
  keratinocyte migration (result in words): do not induce keratinocyte migration
[1]; 10 μM
  % activity/control: 99%

## O=S(=O)([O-])OC[C@H]1O[C@@](COS(=O)(=O)[O-])(O[C@H]2O[C@H](COS(=O)(=O)[O-])[C@@H](OS(=O)(=O)[O-])[C@H](OS(=O)(=O)[O-])[C@H]2OS(=O)(=O)[O-])[C@@H](OS(=O)(=O)[O-])[C@@H]1OS(=O)(=O)[O-].[Na+].[Na+].[Na+].[Na+].[Na+].[Na+].[Na+].[Na+] [SOS-Na, sucrose octasulfate of sodium]
[1]; 10 μM, HaCaT
  AVG IF (Intensity of Fluorescence, proportional to the quantity of cells having migrated): 4988 ± 965
  keratinocyte migration (result in words): do not induce keratinocyte migration
[1]; 10 μM
  % activity/control: 99%

## sucrose octasulfate of magnesium [SOS-Mg]
hBD2 (DEFB4)
  expression of hBD2 (DEFB4) mRNA: induced to a greater extent
IVL
  expression of IVL mRNA: induced
SPRR1A
  expression of SPRR1A mRNA: induced
FLG
  expression of FLG mRNA: induced
LOR
  expression of LOR (loricrin) mRNA: induced to a greater extent
SPRR1B
  expression of SPRR1B mRNA: induced
Padi1
  expression of Padi1 mRNA: induced to a greater extent
[1]; 10 μM, HaCaT
  AVG IF (Intensity of Fluorescence, proportional to the quantity of cells having migrated): 7084 ± 662
  keratinocyte migration (result in words): induced keratinocyte migration in a statistically significant manner
  migration relative to that induced by SOS-Na and SOS-K: 1.4 times
[1]; 10 μM
  % activity/control: 140* %

From patent US9562065B2, “Sucrose octasulfates of magnesium, preparation method thereof and pharmaceutical cosmetic uses of same” (PIERRE FABRE DERMO-COSMETIQUE, priority 2011, dated 2017)
